Assay results as given in patent publication US20030031715A1, “Pharmaceutical applications of hydrotropic agents, polymers thereof, and hydrogels thereof” (priority 2000, published 2003).
Values after ≈ are worked out from the molar mass of the structure shown. Like-named read-outs stand apart in the source and are kept apart here.

Experiments:
[1] = Paclitaxel aqueous solubility in the presence of hydrotropic agents, polymers and hydrogels (HPLC); conditions: for hydrotropic effect for paclitaxel, in words: agent concentration as printed in parentheses in the text
Protocol: The mobile phase consists of acetonitrile-water (45:55 v/v) with a flow rate of 1.0 ml/min.
To the filtered solution is added ethylene glycol dimethacrylate, a crosslinker at a concentration of 6 mol % to the monomer.

physchem = conditions: water
[2] = Water solubility (maximum solubility) of hydrotropic agents; conditions: for solubility: water
[3] = at 37° C.; cited from earlier work
[4] = log (CO/CW), octanol and water; cited from earlier work

## Poly(sodium 6-allyloxynicotinic acid)
[1]
  PTX Solubility: 3 µg/mL

## CC(C)N(C(=O)c1cccnc1)C(C)C [diisopropylnicotinamide, N,N-diisopropylnicotinamide]
physchem
  solubility: 50 mM (≈ 10300 µg/mL)

## Poly(Sodium 5-acrylamidosalicylate)
[1]
  PTX Solubility: 0 µg/mL

## CNC(C)=O [N-methylacetamide]
[1]
  hydrotropic effect for paclitaxel, in words: very small hydrotropic effects
[1]; hydrotropic agent […]
  PTX Solubility: 12 µg/mL

## CCN(CC)C(=O)c1cccnc1 [N,N-diethylnicotinamide]
[1]
  hydrotropic property relative to N,N-dimethylnicotinamide: > 20 times

## O=C1NS(=O)(=O)c2ccccc21 [o-benzoic acid sulfimide]
[2]; in water
  maximum solubility (water solubility) of the hydrotropic agent: 10 mM

## C=C(C)C(=O)OCCOP(=O)([O-])OCC[N+](C)(C)C [2-methacryloyloxyethyl phosphorylcholine]
[1]
  PTX Solubility: 3199 µg/mL

## NC(N)=O [urea]
[1]
  PTX Solubility: 1 µg/mL

## Poly(Sodium 4-acrylamidosalicylate)
[1]
  PTX Solubility: 28 µg/mL

## Pluronic P85
[1]
  PTX Solubility: 118 µg/mL

## Polyvinylpyrrolidone K- 17
[1]
  PTX Solubility: 0 µg/mL

## Poly(6-allyloxy-N,N-diethylnicotinamide)
[1]
  PTX Solubility: 149 µg/mL

## Polyvinylpyrrolidone K-30
[1]
  PTX Solubility: 1 µg/mL

## Nc1ccc(C(=O)O)c(O)c1 [4-aminosalicylic acid]
physchem
  solubility: 5 mM (≈ 766 µg/mL)

## C=CC(=O)NC(C)C [N-isopropylacrylamide]
[1]
  hydrotropic effect for paclitaxel, in words: very small hydrotropic effects

## Nc1ncnc2c1ncn2[C@@H]1O[C@H](CO)[C@@H](O)[C@H]1O [adenosine]
physchem
  solubility: 5 mM (≈ 1340 µg/mL)

## NC(=O)c1ccncc1C(N)=O [3,4-pyridinedicarboxamide]
[1]
  PTX Solubility: 0 µg/mL
physchem
  solubility: 25 mM (≈ 4130 µg/mL)

## CCN(CC)C(=O)c1cccnc1O [2-hydroxy-N,N-diethylnicotinamide]
[1]
  PTX Solubility: 0 µg/mL
physchem
  solubility: 200 mM (≈ 38800 µg/mL)

## Pluronic F127
[1]
  PTX Solubility: 66 µg/mL

## Poly(2-methacryloyloxyethyl phosphorylcholine-co-N-isopropylacrylamide)
[1]
  PTX Solubility: 42 µg/mL

## Polyvinylpyrrolidone K-90
[1]
  PTX Solubility: 2 µg/mL

## Cc1ccc(S(=O)(=O)[O-])cc1.[Na+] [Sodium p-toluenesulfonate]
[2]
  solubility: 2500 mM

## O=C1CCC(N2C(=O)c3ccccc3C2=O)C(=O)N1 (centres unmarked) [Thalidomide]
[3]
  Water Solubility (μM): 77.5 µM
  Water Solubility (μg/ml): 20.0 µg/mL
[4]
  Partition Coefficient: 0.64

## CC(=O)OCC(COC(C)=O)OC(C)=O [glyceryl triacetate]
physchem
  solubility: 200 mM

## NC(=O)c1cccc(C(N)=O)n1 [2,6-pyridinedicarboxamide]
[1]
  PTX Solubility: 0 µg/mL
physchem
  solubility: 2.5 mM (≈ 413 µg/mL)

## COC(=O)C1=C(C)NC(C)=C(C(=O)OCCN(C)Cc2ccccc2)C1c1cccc([N+](=O)[O-])c1 (centres unmarked) [Nicardipine]
[3]
  Water Solubility (μM): 7.1 µM
  Water Solubility (μg/ml): 3.4 µg/mL
[4]
  Partition Coefficient: 3.62

## Polyvinylpyrrolidone K-25
[1]
  PTX Solubility: 3 µg/mL

## Cc1ccc(S(=O)(=O)[O-])c(C)c1.[Na+] [Sodium xylenesulfonate]
[2]
  solubility: 2500 mM

## Poly(N-allylnicotinamide)
[1]
  PTX Solubility: 253 µg/mL

## CCN(CC)C(=O)c1ccc(=O)[nH]c1 [6-Hydroxy-N,N-diethylnicotinamide]
[2]
  solubility: 2000 mM (≈ 388000 µg/mL)

## CC/C(=C(/CC)c1ccc(O)cc1)c1ccc(O)cc1 [Diethylstilbestrol]
[3]
  Water Solubility (μM): 7.5 µM
  Water Solubility (μg/ml): 2.0 µg/mL
[4]
  Partition Coefficient: 4.50

## CC(=O)S[C@@H]1CC2=CC(=O)CC[C@]2(C)[C@H]2CC[C@@]3(C)[C@@H](CC[C@@]34CCC(=O)O4)[C@H]12 [Spironolactone]
[3]
  Water Solubility (μM): 72.0 µM
  Water Solubility (μg/ml): 30.0 µg/mL
[4]
  Partition Coefficient: 2.78

## Fc1ccc(C(c2ccc(F)cc2)N2CCN(C/C=C/c3ccccc3)CC2)cc1 [Flunarizine]
[3]
  Water Solubility (μM): 1.0 µM
  Water Solubility (μg/ml): 0.4 µg/mL
[4]
  Partition Coefficient: 4.70
